Like-named read-outs stand apart in the source and are kept apart here.
Tests used:
[1] = target: T1, TTR tetramer (recombinant human transthyretin WT, T119M, V30M) (Homo sapiens, UniProt P02766, T139M); assay type: binding; conditions: probe solution 10 μM; recombinant TTR 100 ng/mL; FIG. 14A
T1 construct: purchased AlexoTech T-500-10 (WT); T-515-10 (T119M); T-505-10 (V30M)

[2] = target: T2, TTR tetramer (recombinant human transthyretin WT, T119M, V30M) (Homo sapiens, UniProt P02766, V50M); assay type: binding; conditions: probe solution 10 μM; recombinant TTR 100 ng/mL; FIG. 14A
T2 construct: purchased AlexoTech T-500-10 (WT); T-515-10 (T119M); T-505-10 (V30M)

[3] = tested on: TTR tetramer (recombinant human transthyretin WT, T119M, V30M); assay type: binding; conditions: probe solution 10 μM; recombinant TTR 100 ng/mL; FIG. 14A-D
[4] = target: T1, TTR tetramer (recombinant human transthyretin WT, T119M, V30M); assay type: binding; conditions: probe solution 0.3 μM immobilized; FIG. 16A
[5] = target: T2, TTR tetramer (recombinant human transthyretin WT, T119M, V30M); assay type: binding; conditions: probe solution 0.3 μM immobilized; FIG. 16A
[6] = tested on: TTR tetramer (recombinant human transthyretin WT, T119M, V30M); assay type: binding; conditions: probe solution 0.3 μM immobilized on solid phase; recombinant TTR 100 ng/mL; FIG. 16A-B
[7] = target: T1, TTR tetramer (recombinant human transthyretin WT, T119M, V30M); assay type: binding; conditions: probe solution 0.2 μM; FIG. 18A
[8] = target: T2, TTR tetramer (recombinant human transthyretin WT, T119M, V30M); assay type: binding; conditions: probe solution 0.2 μM; FIG. 18A
[9] = tested on: TTR tetramer (recombinant human transthyretin WT, T119M, V30M); assay type: binding; conditions: probe solution 0.2 μM mixed with sample; FIG. 18A-B
[10] = Comparative Example 2: 48-hour urea treatment, then sandwich ELISA (TTR 4mer %); assay type: physicochemical, human; conditions: urea 7.2 M, 25° C., Dunnett's test, FIG. 24A
Procedure: The recombinant TTR of the wild-type (WT), the stabilized variant (Ti19M), and the destabilized variant (V30M) as in Example 1 were used as the recombinant TTR. These recombinant TTRs were diluted with 1% BSA/PBS, to prepare a sample containing 16 µg/mL of each recombinant TTR. Sera obtained from patients with atrial fibrillation (n=26), wild-type ATTR patients (n=18), and ATTR patients with destabilized mutation (A36D) (n=2) were diluted 10 times with 1% BSA/PBS, to prepare various serum samples. A calibrator was prepared in the same manner as in Comparative Example 1.
As the detection antibody and the labeling substance, a biotin-labeled antibody solution and an ALP solution were prepared in the same manner as in Comparative Example 1. An anti-TTR antibody solution was prepared as the capture antibody in the same manner as in Comparative Example 1. […]
Each sample was measured by sandwich ELISA in the same manner as in (3.2) of Comparative Example 1. The calibrator was measured in the same manner. A calibration curve was prepared from the measured values of the calibrators, and the TTR level of each sample was acquired with use of the calibration curve. TTR 4 mer % of the sample after the urea treatment was calculated from the following calculation formula, using the TTR levels of the sample after the urea treatment and the sample without the urea treatment. […]

Biotin-PEG8-Thyroxine [Probe C1]
signal measured value of T119M sample relative to WT sample [1]: higher than the signal measured value of WT
signal measured value of V30M sample relative to WT sample [2]: lower than the signal measured value of WT
chemiluminescence signal measured values of WT, T119M and V30M samples versus blank [3]: higher than the signal measured value of the blank

O=C(CCCCC1SCC2NC(=O)NC21)NCCOCCOCCOCCOCCOCCOCCOCCOCCC(=O)Nc1ccc(/C=C/c2cc(Br)c(O)c(Br)c2)cc1 (stereo not shown) [Probe C5, Biotin-PEG8-Stilbene Derivative]
chemiluminescence signal measured values of WT, T119M and V30M samples versus blank [3]: results similar to those of FIG. 14 A
signal measured value of T119M sample relative to WT sample [4]: higher than the signal measured value of WT
signal measured value of V30M sample relative to WT sample [5]: lower than the signal measured value of WT
chemiluminescence signal measured values of WT, T119M and V30M samples versus blank [6]: higher than the signal measured value of the blank
signal measured value of T119M sample relative to WT sample [7]: higher than the signal measured value of WT
signal measured value of V30M sample relative to WT sample [8]: lower than the signal measured value of WT
chemiluminescence signal measured values of WT, T119M and V30M samples versus blank [9]: higher than the signal measured value of the blank

transthyretin (T119M) human, recombinant [Probe T119M]
TTR 4mer % relative to the sample containing wild-type TTR [10]: significantly higher

biotin-PEG12-thyroxine [Probe C2]
chemiluminescence signal measured values of WT, T119M and V30M samples versus blank [3]: results similar to those of FIG. 14 A

transthyretin (V30M) human [Probe V30M]
TTR 4mer % relative to the sample containing wild-type TTR [10]: significantly lower

Source: US20250369975A1, “METHOD FOR DETECTING TRANSTHYRETIN TETRAMER, AND METHOD FOR EVALUATING STABILITY” (SYSMEX CORPORATION, priority 2024, published 2025)
